Results published in ChEMBL document CHEMBL1156722, “A novel 5-[1,3,4-oxadiazol-2-yl]-N-aryl-4,6-pyrimidine diamine having dual EGFR/HER2 kinase activity: design, synthesis, and biological activity” (Bioorg Med Chem Lett, 2008).

Columns and labels:
[1] = biological target: T1, Aurora kinase A (Homo sapiens) (UniProt O14965); assay: Inhibition of Aurora A at 100 uM
T1 sequence (whole entry): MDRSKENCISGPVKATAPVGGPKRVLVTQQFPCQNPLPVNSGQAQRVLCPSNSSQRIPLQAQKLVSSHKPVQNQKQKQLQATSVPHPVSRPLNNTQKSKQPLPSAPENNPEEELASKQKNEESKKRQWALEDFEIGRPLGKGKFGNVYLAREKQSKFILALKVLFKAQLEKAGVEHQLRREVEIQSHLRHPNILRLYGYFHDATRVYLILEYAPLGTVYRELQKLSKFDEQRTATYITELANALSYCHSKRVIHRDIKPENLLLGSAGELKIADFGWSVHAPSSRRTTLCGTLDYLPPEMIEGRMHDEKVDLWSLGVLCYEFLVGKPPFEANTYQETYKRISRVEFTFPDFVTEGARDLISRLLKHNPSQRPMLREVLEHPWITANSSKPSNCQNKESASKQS

[2] = biological target: T2, Vascular endothelial growth factor receptor 2 (Homo sapiens, UniProt P35968); assay: Inhibition of VEGFR2 at 100 uM
T2 sequence (P35968 whole entry): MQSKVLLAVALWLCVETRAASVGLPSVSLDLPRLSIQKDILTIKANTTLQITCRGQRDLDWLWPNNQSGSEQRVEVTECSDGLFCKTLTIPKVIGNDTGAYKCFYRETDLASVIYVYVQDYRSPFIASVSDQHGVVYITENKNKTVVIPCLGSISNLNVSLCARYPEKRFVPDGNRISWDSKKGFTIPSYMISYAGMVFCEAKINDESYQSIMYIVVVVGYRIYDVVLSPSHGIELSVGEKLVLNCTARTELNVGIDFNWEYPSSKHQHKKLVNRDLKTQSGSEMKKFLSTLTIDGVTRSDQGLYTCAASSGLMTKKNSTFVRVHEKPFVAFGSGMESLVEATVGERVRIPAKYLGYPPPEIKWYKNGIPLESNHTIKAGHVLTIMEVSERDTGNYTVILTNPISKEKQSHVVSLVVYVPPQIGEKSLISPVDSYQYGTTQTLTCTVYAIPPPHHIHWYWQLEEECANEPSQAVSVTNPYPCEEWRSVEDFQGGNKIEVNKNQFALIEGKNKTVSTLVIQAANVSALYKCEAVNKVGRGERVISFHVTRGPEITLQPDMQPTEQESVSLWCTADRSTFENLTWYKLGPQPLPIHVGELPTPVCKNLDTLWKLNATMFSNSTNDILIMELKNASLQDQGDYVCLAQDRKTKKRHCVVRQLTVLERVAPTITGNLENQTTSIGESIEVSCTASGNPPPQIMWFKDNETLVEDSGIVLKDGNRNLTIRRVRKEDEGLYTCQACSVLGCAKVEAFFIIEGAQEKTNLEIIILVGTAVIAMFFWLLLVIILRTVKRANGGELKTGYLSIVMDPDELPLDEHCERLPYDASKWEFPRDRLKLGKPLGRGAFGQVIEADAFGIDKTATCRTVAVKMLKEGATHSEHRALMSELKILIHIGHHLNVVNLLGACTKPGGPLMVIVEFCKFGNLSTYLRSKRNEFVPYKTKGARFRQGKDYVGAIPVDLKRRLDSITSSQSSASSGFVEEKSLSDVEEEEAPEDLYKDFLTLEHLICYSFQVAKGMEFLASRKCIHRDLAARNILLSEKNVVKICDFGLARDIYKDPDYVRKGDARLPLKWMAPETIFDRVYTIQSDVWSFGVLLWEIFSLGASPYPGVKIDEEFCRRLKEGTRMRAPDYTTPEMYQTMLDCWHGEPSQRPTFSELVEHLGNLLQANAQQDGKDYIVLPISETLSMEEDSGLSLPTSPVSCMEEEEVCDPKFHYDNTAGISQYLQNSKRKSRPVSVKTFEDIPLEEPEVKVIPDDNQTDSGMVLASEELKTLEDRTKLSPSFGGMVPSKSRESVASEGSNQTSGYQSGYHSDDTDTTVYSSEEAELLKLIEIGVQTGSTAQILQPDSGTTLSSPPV

[3] = biological target: T3, Cyclin-dependent kinase 1 (Homo sapiens, UniProt P06493); assay: Inhibition of CDK1 at 100 uM
Target sequence in this assay (P06493 whole entry, looked up): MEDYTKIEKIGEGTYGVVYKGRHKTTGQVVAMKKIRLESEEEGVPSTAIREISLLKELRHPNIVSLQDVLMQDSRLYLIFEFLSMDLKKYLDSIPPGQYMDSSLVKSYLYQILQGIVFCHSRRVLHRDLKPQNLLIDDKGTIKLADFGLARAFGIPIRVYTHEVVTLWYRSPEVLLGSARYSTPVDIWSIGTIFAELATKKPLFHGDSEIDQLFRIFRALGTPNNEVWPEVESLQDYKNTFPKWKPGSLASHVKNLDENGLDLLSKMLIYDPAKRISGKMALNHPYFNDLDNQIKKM

[4] = biological target: T2, Vascular endothelial growth factor receptor 2; assay: Inhibition of VEGFR2
[5] = biological target: T3, Cyclin-dependent kinase 1; assay: Inhibition of CDK1
Target sequence in this assay (P06493 whole entry): as the sequence (P06493 whole entry, looked up) above

Aurora kinase A = biological target: T4, Aurora kinase A (Homo sapiens, UniProt O14965); assay: Inhibition of Aurora A
T4 sequence (O14965 whole entry): T1 sequence (whole entry)

[6] = biological target: Receptor tyrosine-protein kinase erbB-2 (Homo sapiens, UniProt P04626); assay: Inhibition of HER2
Sequence of Receptor tyrosine-protein kinase erbB-2 (P04626 whole entry): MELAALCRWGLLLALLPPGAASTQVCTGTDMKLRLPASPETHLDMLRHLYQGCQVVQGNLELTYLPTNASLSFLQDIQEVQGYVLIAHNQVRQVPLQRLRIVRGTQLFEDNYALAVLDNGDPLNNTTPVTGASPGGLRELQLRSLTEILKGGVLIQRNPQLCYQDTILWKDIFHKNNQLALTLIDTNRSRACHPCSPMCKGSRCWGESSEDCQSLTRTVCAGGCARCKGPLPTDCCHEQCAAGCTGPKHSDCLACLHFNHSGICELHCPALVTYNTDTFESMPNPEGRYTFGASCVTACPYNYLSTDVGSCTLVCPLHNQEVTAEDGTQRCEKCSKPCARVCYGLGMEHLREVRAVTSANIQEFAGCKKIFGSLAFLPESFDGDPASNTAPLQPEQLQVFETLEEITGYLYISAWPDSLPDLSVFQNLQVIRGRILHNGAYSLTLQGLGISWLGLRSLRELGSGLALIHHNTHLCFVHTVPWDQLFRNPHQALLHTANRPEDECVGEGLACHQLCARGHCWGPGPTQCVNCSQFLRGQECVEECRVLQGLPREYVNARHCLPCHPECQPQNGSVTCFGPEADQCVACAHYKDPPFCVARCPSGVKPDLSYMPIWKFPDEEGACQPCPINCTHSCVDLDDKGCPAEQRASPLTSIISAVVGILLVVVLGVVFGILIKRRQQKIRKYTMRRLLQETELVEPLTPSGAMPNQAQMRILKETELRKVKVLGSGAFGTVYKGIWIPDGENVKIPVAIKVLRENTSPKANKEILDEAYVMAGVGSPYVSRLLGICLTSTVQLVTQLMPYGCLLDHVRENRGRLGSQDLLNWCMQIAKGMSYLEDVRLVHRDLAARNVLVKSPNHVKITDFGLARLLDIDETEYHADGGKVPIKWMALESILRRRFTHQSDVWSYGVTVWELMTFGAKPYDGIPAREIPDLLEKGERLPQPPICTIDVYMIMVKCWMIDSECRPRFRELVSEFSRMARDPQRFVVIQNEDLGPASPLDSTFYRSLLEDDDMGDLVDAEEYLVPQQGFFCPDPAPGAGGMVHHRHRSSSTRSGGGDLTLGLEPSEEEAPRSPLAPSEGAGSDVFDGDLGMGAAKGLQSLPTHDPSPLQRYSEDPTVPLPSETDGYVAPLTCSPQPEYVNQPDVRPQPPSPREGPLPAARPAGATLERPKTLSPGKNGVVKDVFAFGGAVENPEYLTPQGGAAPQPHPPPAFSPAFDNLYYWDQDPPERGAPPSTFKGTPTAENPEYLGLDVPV

NCI-N87 = assay: Cytotoxicity against human HER2-dependent N87 cells; type: functional, cell-based
BT-474 = assay: Cytotoxicity against human HER2-dependent BT474 cells; type: functional, cell-based
SK-BR-3 = assay: Cytotoxicity against human HER2-dependent SKBR3 cells; type: functional, cell-based
HeLa = assay: Cytotoxicity against human non-HER2-dependent HeLa cells; type: functional, cell-based
[7] = biological target: Epidermal growth factor receptor (Homo sapiens, UniProt P00533)
Sequence of Epidermal growth factor receptor (P00533 whole entry): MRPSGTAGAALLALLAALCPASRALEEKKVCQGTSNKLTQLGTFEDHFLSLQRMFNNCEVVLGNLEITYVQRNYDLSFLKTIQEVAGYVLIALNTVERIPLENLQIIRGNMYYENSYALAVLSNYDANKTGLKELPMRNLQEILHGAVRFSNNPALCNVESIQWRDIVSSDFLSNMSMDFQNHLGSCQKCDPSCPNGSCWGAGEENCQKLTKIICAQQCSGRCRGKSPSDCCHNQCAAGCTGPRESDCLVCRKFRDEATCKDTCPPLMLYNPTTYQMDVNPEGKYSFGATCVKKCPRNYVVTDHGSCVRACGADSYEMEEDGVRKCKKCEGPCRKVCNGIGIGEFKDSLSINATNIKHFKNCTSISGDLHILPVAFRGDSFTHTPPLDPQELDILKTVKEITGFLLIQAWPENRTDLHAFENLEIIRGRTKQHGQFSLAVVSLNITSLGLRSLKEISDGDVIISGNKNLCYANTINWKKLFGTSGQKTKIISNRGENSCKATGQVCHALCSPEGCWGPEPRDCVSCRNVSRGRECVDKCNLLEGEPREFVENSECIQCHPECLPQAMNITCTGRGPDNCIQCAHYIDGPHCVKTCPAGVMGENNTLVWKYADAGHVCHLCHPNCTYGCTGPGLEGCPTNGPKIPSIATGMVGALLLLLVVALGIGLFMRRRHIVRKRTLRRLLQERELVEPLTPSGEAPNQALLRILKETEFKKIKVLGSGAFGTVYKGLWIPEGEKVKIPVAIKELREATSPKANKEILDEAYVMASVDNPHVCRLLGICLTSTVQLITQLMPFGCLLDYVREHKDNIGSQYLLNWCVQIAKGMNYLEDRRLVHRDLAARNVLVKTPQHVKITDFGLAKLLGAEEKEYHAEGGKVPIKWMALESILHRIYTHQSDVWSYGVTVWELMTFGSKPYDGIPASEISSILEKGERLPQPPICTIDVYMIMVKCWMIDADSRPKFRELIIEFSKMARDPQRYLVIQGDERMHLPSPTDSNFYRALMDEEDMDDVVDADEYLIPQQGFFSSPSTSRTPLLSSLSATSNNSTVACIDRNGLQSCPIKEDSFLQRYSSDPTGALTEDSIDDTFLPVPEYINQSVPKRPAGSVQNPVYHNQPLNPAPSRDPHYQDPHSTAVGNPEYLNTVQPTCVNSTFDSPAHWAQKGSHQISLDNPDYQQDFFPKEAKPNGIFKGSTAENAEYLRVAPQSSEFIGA

For `Nc1ncnc(Nc2ccc(OCc3ccccc3)c(Cl)c2)c1C(=O)O`, the inhibition [1] was 73%, the inhibition [2] was 30% and the inhibition [3] was < 10%.

For `Nc1ncnc(Nc2ccc(OCc3ccccc3)c(Cl)c2)c1C(=O)NCCN1CCCCC1`, the IC50 [4] was > 100 µM, the IC50 [5] was > 100 µM and the IC50 (Aurora kinase A) was 100 µM.

With `Nc1ncnc(Nc2ccc(OCc3ccccc3)c(Cl)c2)c1C(=O)OCc1cccc(F)c1` the IC50 [4] was > 100 µM, the IC50 [5] was > 100 µM and the IC50 [6] was > 100000 nM. The IC50 (Aurora kinase A) was > 100 µM.

For `Nc1ncnc(Nc2ccc(OCc3ccccc3)c(Cl)c2)c1C(=O)NCCN1CCOCC1`, the IC50 [4] was > 100 µM, the IC50 [5] was > 100 µM and the IC50 [6] was 10000 nM. The IC50 (Aurora kinase A) was > 100 µM.

With `COc1ccc(NC(=O)c2c(N)ncnc2Nc2ccc(OCc3ccccc3)c(Cl)c2)cc1` the IC50 [4] was > 100 µM, the IC50 [5] was > 100 µM and the IC50 [6] was > 100000 nM. For the same compound, the IC50 (Aurora kinase A) was > 10 µM.

For `Nc1ncnc(Nc2ccc(OCc3ccccc3)c(Cl)c2)c1-c1nnc(CCN2CCOCC2)o1`, the IC50 (NCI-N87) was 411 nM, the IC50 [4] was > 100 µM and the IC50 (BT-474) was 312 nM. The IC50 [5] was > 100 µM, the IC50 [6] was 80 nM and the IC50 (Aurora kinase A) was > 100 µM. The IC50 (SK-BR-3) was 325 nM, the IC50 (HeLa) was > 100 µM and the IC50 [7] was 30 nM.

Compound `COC(=O)c1c(N)ncnc1Nc1ccc(OCc2ccccc2)c(Cl)c1` has an IC50 [6] of 100 nM and an inhibition [1] of 50%.

In the case of `NNC(=O)c1c(N)ncnc1Nc1ccc(OCc2ccccc2)c(Cl)c1`, the IC50 [4] is reported as > 10 µM, the IC50 [5] is reported as > 100 µM and the IC50 [6] is reported as 146 nM. The IC50 (Aurora kinase A) was > 10 µM.

With `Nc1ncnc(Nc2ccc(OCc3ccccc3)c(Cl)c2)c1C=O` the inhibition [1] was 30%, the inhibition [2] was < 10% and the inhibition [3] was < 10%.

`Nc1ncnc(Nc2ccc(OCc3ccccc3)c(Cl)c2)c1C(=O)Nc1ccccc1` was tested, and the IC50 [4] was > 100 µM, the IC50 [5] was > 100 µM and the IC50 [6] was > 100000 nM. The IC50 (Aurora kinase A) was > 100 µM and the IC50 [7] was 76 nM.

In the case of `Nc1ncnc(Nc2ccc(OCc3ccccc3)c(Cl)c2)c1C(=O)OCCN1CCOCC1`, the IC50 [6] is reported as 1530 nM, the inhibition [1] is reported as 55% and the inhibition [2] is reported as 11%. For the same compound, the inhibition [3] was < 10%.

In the case of `Nc1ncnc(Nc2ccc(OCc3ccccc3)c(Cl)c2)c1C(=O)NNC(=O)CCN1CCOCC1`, the IC50 [4] is reported as > 100 µM, the IC50 [5] is reported as > 100 µM and the IC50 (Aurora kinase A) is reported as > 100 µM.

`N#Cc1c(N)ncnc1Nc1ccc(OCc2ccccc2)c(Cl)c1` showed an IC50 [6] of 470 nM, an inhibition [1] of 33% and an inhibition [2] of 37%. For the same compound, the inhibition [3] was < 10% and the IC50 [7] was 27 nM.

In the case of `COCCNC(=O)c1c(N)ncnc1Nc1ccc(OCc2ccccc2)c(Cl)c1`, the IC50 [4] is reported as > 100 µM, the IC50 [5] is reported as > 100 µM and the IC50 [6] is reported as > 100000 nM. For the same compound, the IC50 (Aurora kinase A) was > 100 µM.

With `CCN(CC)C(=O)c1c(N)ncnc1Nc1ccc(OCc2ccccc2)c(Cl)c1` the IC50 [4] was > 100 µM, the IC50 [5] was > 100 µM and the IC50 [6] was > 100000 nM. For the same compound, the IC50 (Aurora kinase A) was > 100 µM.

With `COc1ccc(CCNC(=O)c2c(N)ncnc2Nc2ccc(OCc3ccccc3)c(Cl)c2)cc1` the IC50 [4] was > 100 µM, the IC50 [5] was > 100 µM and the IC50 [6] was > 100000 nM. The IC50 (Aurora kinase A) was > 100 µM.
